ChEMBL document CHEMBL1201862, “PubChem BioAssay data set” (2004)
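Method: 48-hour compound exposure of cells in 96-well plates, five concentrations, linear interpolation of endpoints. GI50 is the concentration that inhibits growth by half.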 Activity calls are given as the source filed them. Rule as the data show it: active = GI50 up to about 1.1 µM and inactive = higher.

Legend:
Experiment in all cases: NCI tumour cell line growth inhibition, 48 h
SK-MEL-5 = tested on: SK-MEL-5
NCI-H460 = tested on: NCI-H460
KM12 = tested on: KM12
SK-OV-3 = tested on: SK-OV-3
SF-539 = tested on: SF-539
SR = tested on: SR
IGROV-1 = tested on: IGROV-1
UO-31 = tested on: UO-31
CCRF-CEM = tested on: CCRF-CEM
M14 = tested on: M14
786-0 = tested on: 786-0
HOP-92 = tested on: HOP-92
ACHN = tested on: ACHN
NCI-H226 = tested on: NCI-H226
RXF 393 = tested on: RXF 393
A549 = tested on: A549
SK-MEL-28 = tested on: SK-MEL-28
UACC-257 = tested on: UACC-257
HCC 2998 = tested on: HCC 2998

Measured: GI50

OCC(O)C(O)C(O)c1nnn[nH]1 (stereo not given)
inactive: SK-MEL-5 > 100 µM | NCI-H460 > 100 µM | KM12 > 100 µM | SK-OV-3 > 100 µM | SF-539 > 100 µM | SR > 100 µM | IGROV-1 > 100 µM | UO-31 > 100 µM | CCRF-CEM > 100 µM | M14 > 100 µM | 786-0 > 100 µM | HOP-92 > 100 µM | ACHN > 100 µM | NCI-H226 34.8 µM

Cc1ccc(-c2nc3ccccc3c(=O)n2NCC2(O)OCC(O)C(O)C2O)cc1 (stereo not given)
inactive: SK-MEL-5 > 100 µM | NCI-H460 > 100 µM | KM12 > 100 µM | SK-OV-3 > 100 µM | SF-539 > 100 µM | SR > 100 µM | RXF 393 > 100 µM | UO-31 > 100 µM | A549 > 100 µM | CCRF-CEM > 100 µM | M14 > 100 µM | 786-0 > 100 µM | SK-MEL-28 > 100 µM | UACC-257 > 100 µM | ACHN > 100 µM

CC1CC(=O)Nc2ccc(Cl)cc2N1C(=O)CN1CCC(CCCCN(C)C)CC1 (stereo not given)
inactive: SK-MEL-5 > 100 µM | NCI-H460 > 100 µM | SK-OV-3 > 100 µM | SR > 100 µM | IGROV-1 > 100 µM | UO-31 > 100 µM | HCC 2998 > 100 µM | A549 > 100 µM | CCRF-CEM > 100 µM | M14 > 100 µM | 786-0 > 100 µM | HOP-92 > 100 µM | SK-MEL-28 > 100 µM | UACC-257 > 100 µM | ACHN > 100 µM | NCI-H226 > 100 µM

COC(=O)C(=O)C1(CCC(C)=O)c2ccccc2-c2ccccc21
inactive: SK-MEL-5 35.7 µM | NCI-H460 59.8 µM | KM12 74.3 µM | SK-OV-3 > 100 µM | SR 41 µM | RXF 393 57.4 µM | IGROV-1 > 100 µM | UO-31 41 µM | HCC 2998 72.3 µM | A549 87.5 µM | CCRF-CEM 63.2 µM | M14 41 µM | 786-0 85.1 µM | SK-MEL-28 94 µM | UACC-257 55.2 µM | ACHN > 100 µM | NCI-H226 > 100 µM

OCC(O)C(O)C(O)c1nn(-c2ccc(Cl)cc2)c2nc3cc(Cl)c(Cl)cc3nc12 (stereo not given)
inactive: NCI-H460 68.7 µM | KM12 > 10 µM | SK-OV-3 23.8 µM | SF-539 42.8 µM | SR > 100 µM | RXF 393 21.8 µM | IGROV-1 31.8 µM | UO-31 71.6 µM | HCC 2998 60.1 µM | A549 32.4 µM | CCRF-CEM 52.1 µM | M14 22.7 µM | 786-0 65.6 µM | SK-MEL-28 61.1 µM | UACC-257 86.3 µM | ACHN 73.1 µM | NCI-H226 21.1 µM

COC(=O)C1CC(OC(C)=O)C=C2C(=O)CCC21 (stereo not given)
inactive: SK-MEL-5 20.5 µM | NCI-H460 17.1 µM | KM12 16.9 µM | SK-OV-3 27.1 µM | SF-539 20.6 µM | SR 14 µM | RXF 393 14.8 µM | IGROV-1 27.2 µM | UO-31 27.2 µM | HCC 2998 34.2 µM | A549 37.2 µM | CCRF-CEM 16.8 µM | M14 16.7 µM | 786-0 18.5 µM | SK-MEL-28 17.1 µM | UACC-257 16.8 µM | ACHN 20.2 µM | NCI-H226 73.1 µM

O=C1/C(=C/c2ccc(Cl)cc2)NC(=S)N1CN1CCCCC1
inactive: SK-MEL-5 31 µM | KM12 38.7 µM | SK-OV-3 63.4 µM | SR 34.8 µM | IGROV-1 33.8 µM | UO-31 28.1 µM | A549 34.1 µM | CCRF-CEM 17.8 µM | M14 35.1 µM | 786-0 30.2 µM | HOP-92 50.5 µM | SK-MEL-28 61.2 µM | ACHN 24.6 µM | NCI-H226 32.3 µM

O=C(O)CCSC(=O)Nc1ccccc1
inactive: NCI-H460 > 100 µM | KM12 > 100 µM | SF-539 > 100 µM | SR > 100 µM | RXF 393 > 100 µM | IGROV-1 94.6 µM | UO-31 > 100 µM | HCC 2998 > 100 µM | A549 > 100 µM | CCRF-CEM > 100 µM | M14 > 100 µM | 786-0 > 100 µM | SK-MEL-28 > 100 µM | UACC-257 > 100 µM | ACHN 97.9 µM | NCI-H226 > 100 µM

O=S1(=O)OCCOS(=O)(=O)C1I
inactive: SK-MEL-5 66.8 µM | KM12 > 100 µM | SK-OV-3 > 100 µM | SF-539 > 100 µM | SR 91.8 µM | IGROV-1 > 100 µM | UO-31 48.5 µM | HCC 2998 > 100 µM | A549 > 100 µM | CCRF-CEM 86.9 µM | M14 > 100 µM | 786-0 71 µM | HOP-92 > 100 µM | SK-MEL-28 > 100 µM | UACC-257 > 100 µM | NCI-H226 28.6 µM

CCCNCc1nc2ccc(Br)cc2c(=O)n1CCC
inactive: SK-MEL-5 7.55 µM | KM12 15.1 µM | SK-OV-3 18.7 µM | SF-539 15.8 µM | SR 11.7 µM | RXF 393 15.4 µM | IGROV-1 15.6 µM | UO-31 16.2 µM | A549 16.6 µM | CCRF-CEM 3.27 µM | M14 14.1 µM | 786-0 15.8 µM | SK-MEL-28 15.3 µM | UACC-257 13.3 µM | ACHN 16.1 µM | NCI-H226 12.5 µM

CN1OC2OC(=O)OC2[C@H]1[C@H]1O[C@H](c2ccccc2)OC1(C)c1cc(OC(=O)c2ccccc2)ccc1OC(=O)c1ccccc1 (stereo not given in full)
inactive: SK-MEL-5 > 50 µM | NCI-H460 > 50 µM | KM12 > 50 µM | SK-OV-3 > 50 µM | SF-539 > 50 µM | SR > 50 µM | RXF 393 > 50 µM | IGROV-1 > 50 µM | UO-31 > 50 µM | A549 > 50 µM | CCRF-CEM > 50 µM | M14 > 50 µM | 786-0 > 50 µM | HOP-92 > 50 µM | SK-MEL-28 > 50 µM | UACC-257 > 50 µM | ACHN > 50 µM | NCI-H226 > 50 µM

CC1CN1c1c(C(=O)/C=C/c2ccccc2)c(-c2ccccc2)nn(C)c1=O (stereo not given)
inactive: SK-MEL-5 15.9 µM | NCI-H460 19.1 µM | KM12 20.8 µM | SK-OV-3 31.6 µM | SF-539 16.9 µM | RXF 393 24.7 µM | IGROV-1 23.7 µM | UO-31 15.5 µM | HCC 2998 16.4 µM | A549 28.6 µM | CCRF-CEM 13.4 µM | M14 17.1 µM | 786-0 15.9 µM | HOP-92 13.1 µM | SK-MEL-28 25.3 µM | UACC-257 18.1 µM | ACHN 17.4 µM | NCI-H226 20.8 µM
